One may read the Km as the concentration of substrate that gives half-maximal velocity.

In this assay the test system is T1, Xyaf313.
T1 construct: gene of 1380 bp, 460 aa, about 50 kDa theoretical; C-terminal His6; codon-optimized, pPIC9K, secreted from Pichia pastoris GS115, Ni-NTA
Kind of assay: p-nitrophenol release, Michaelis-Menten nonlinear fit. In kind it is biochemical, Chaetomium globosum. The conditions noted are these: pH 7, 50 °C (optimal conditions); substrate 0.5-5.0 mM. From the text:
p-nitrophenol release, Michaelis-Menten nonlinear fit on Xyaf313

Take `O=[N+]([O-])c1ccc(O[C@@H]2O[C@@H](CO)[C@H](O)[C@H]2O)cc1` [4-nitrophenyl α-L-arabinofuranoside]: the Km stood at 5.65 ± 1.67 mM.

For `O=[N+]([O-])c1ccc(O[C@@H]2OC[C@@H](O)[C@H](O)[C@H]2O)cc1` [ρ-nitrophenyl β-D-xylopyranoside], the Km was determined as 1.77 ± 1.27 mM.

The values above are taken from PMC11940195, “Characterization of a GH43 Bifunctional Glycosidase from Endophytic Chaetomium globosum and Its Potential Application in the Biotransformation of Ginsenosides” (BioTech, 2025).
